Experimental data from patent publication US20260022143A1, “Cyclic Peptide Inhibitors of IL-23” (JANSSEN PHARMACEUTICA NV, priority 2022, published 2026).
Starred links: 1 amine or outer side, 2 acyl side, 3 side chain; linkers in the order of their positions; H or OH if unused. Positions of bridges follow the written chain, without caps; N, C: chain ends. Non-standard residues stand in square brackets, D forms with d. Residues, ends and D or L forms follow the SMILES beside them. Groups on a side chain read outwards from the residue. *: point of attachment. Me3N+(CH2)2O(CH2)2O(CH2)2CO = C[N+](C)(C)CCOCCOCCC(=O)*; CH2CH2OCH2CH2OCH2CH2NMe3+ = C[N+](C)(C)CCOCCOCC*; Phe(4-N3) = [N-]=[N+]=Nc1ccc(C[C@H](N)C(=O)O)cc1; Trp(7-Me) = Cc1cccc2c(C[C@H](N)C(=O)O)c[nH]c12; X20 = C[N+](C)(C)CC[C@H](N[*:1])C(=O)[*:2]; X15 = CC(=O)N(C)C[C@H](N[*:1])C(=O)[*:2]; γGlu = O=C(O)[C@H](CCC(=O)[*:2])N[*:1]; 2Nal = N[C@@H](Cc1ccc2ccccc2c1)C(=O)O; 3Pal = N[C@@H](Cc1cccnc1)C(=O)O; Lys(Me) = CNCCCC[C@H](N)C(=O)O; Agb = N=C(N)NCC[C@H](N)C(=O)O; NMeK = CN[C@@H](CCCCN)C(=O)O; Pen = CC(C)(S)[C@H](N)C(=O)O; Lauroyl = CCCCCCCCCCCC(=O)*; X11 = N=C(N)NCCOCCOCCC(=O)*; Thp = NC1(C(=O)O)CCOCC1; X3 = C[N+](C)(C)CCCCC*; AEEA = NCCOCCOCC(=O)O; Sar = CNCC(=O)O

Tests used:
IL-23R = target: T1, IL-23R (Homo sapiens, UniProt Q5VWK5); assay: IL23R Reporter Assay; assay type: cell-based; conditions: HEK293 cells containing IL-23R, IL-12RP1 and STAT-inducible firefly luciferase reporter; 10 ng/mL IL-23 (EC90); 5 h at 37° C.; read-out: IL23R Reporter Assay
T1 construct: host or cells: HEK293
T1 sequence (Q5VWK5 24-629): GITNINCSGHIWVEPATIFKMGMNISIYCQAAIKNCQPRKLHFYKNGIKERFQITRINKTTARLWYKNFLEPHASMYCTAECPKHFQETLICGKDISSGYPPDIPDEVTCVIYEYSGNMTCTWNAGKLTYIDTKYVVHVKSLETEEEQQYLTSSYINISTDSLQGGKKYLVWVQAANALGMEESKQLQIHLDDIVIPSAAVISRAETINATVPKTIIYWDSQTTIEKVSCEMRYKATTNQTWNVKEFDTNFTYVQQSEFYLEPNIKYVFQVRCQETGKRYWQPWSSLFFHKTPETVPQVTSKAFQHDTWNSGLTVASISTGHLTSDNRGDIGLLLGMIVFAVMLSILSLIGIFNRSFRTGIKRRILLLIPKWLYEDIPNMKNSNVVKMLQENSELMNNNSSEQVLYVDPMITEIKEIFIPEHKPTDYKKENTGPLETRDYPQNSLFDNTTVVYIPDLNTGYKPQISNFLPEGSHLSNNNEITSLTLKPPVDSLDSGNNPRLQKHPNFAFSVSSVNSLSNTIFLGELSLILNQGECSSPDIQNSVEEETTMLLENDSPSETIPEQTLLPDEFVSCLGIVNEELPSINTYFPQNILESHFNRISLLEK

[1] = Exposed Polar Surface Area (EPSA); assay type: physicochemical; conditions: SFC on Chirex 3014 column; sample 1 mM DMSO stock; read-out: EPSA
How it was run: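 Polarity descriptor in Å² derived from retention time using 8 calibration standards re-run every 20 compounds. Duplicate injections of 1 mM DMSO stock; linear 5–60% modifier gradient (20 mM ammonium formate in MeOH) with CO2 at 4 mL/min, 35 °C, on a Chirex 3014 column.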

SMILES	IC50 (IL-23R) [nM]	EPSA [1] [A^2]
CCCCCCCCCCCC(=O)N[C@@H](CCC(=O)NCCOCCOCC(=O)NCCOCCOCC(=O)NCCOCCOCC(=O)NCCOCCOCC(=O)NCCCC[C@@H](NC(=O)CCOCCOCC[N+](C)(C)C)C(=O)N[C@@H]1C(=O)N[C@@H](CC(=O)N(C)C)C(=O)N[C@@H]([C@@H](C)O)C(=O)N[C@@H](Cc2c[nH]c3c(C)cccc23)C(=O)N[C@@H](CCCCNC(C)=O)C(=O)N[C@H](C(=O)N[C@@H](Cc2ccc(OCCCCC[N+](C)(C)C)cc2)C(=O)N[C@@H](Cc2ccc3ccccc3c2)C(=O)NC2(C(=O)N[C@@H](CCCCN(C)C(C)=O)C(=O)N[C@@H](CC(N)=O)C(=O)N[C@@H](Cc3cccnc3)C(=O)N(C)[C@@H](CCCCNC(=O)COCCOCCNC(=O)COCCOCCNC(=O)COCCOCCNC(=O)COCCOCCNC(=O)CC[C@H](NC(=O)CCCCCCCCCCC)C(=O)O)C(N)=O)CCOCC2)C(C)(C)SSC1(C)C)C(=O)O [compound 404, cPEG3aCO-k(PEG2PEG2PEG2PEG2gEC12)-Pen(3)-N(N(Me)2)-T-7MeW-K(Ac)-Pen(3)-TMAPF-2Nal-THP-K(NMeac)-N-3Pya-NMeK(PEG2PEG2PEG2PEG2gEC12)-CONH2] ({Me3N+(CH2)2O(CH2)2O(CH2)2CO}-[dK]([AEEA-AEEA-AEEA-AEEA-γGlu-Lauroyl])[Pen]D(NMe2)T[Trp(7-Me)]K(Ac)[Pen]Y(X3)[2Nal][Thp][Lys(Me)](Ac)N[3Pal][NMeK]([AEEA-AEEA-AEEA-AEEA-γGlu-Lauroyl])-NH2; disulfide 2-7)	31	196
CC(=O)N(C)CCCC[C@@H]1NC(=O)[C@H](Cc2c[nH]c3c(C)cccc23)NC(=O)[C@H]([C@@H](C)O)NC(=O)[C@H](CC(=O)N(C)C)NC(=O)[C@@H](NC(=O)CCOCCOCCNC(=N)N)C(C)(C)SSC(C)(C)[C@@H](C(=O)N[C@@H](Cc2ccc(OCCOCCOCC[N+](C)(C)C)cc2)C(=O)N[C@@H](Cc2ccc3ccccc3c2)C(=O)NC2(C(=O)N[C@@H](CCCCN(C)C(C)=O)C(=O)N[C@@H](CC(N)=O)C(=O)N[C@@H](Cc3cccnc3)C(=O)N(C)CC(=O)N(C)C)CCOCC2)NC1=O [compound 406, cPEG3gCO-Pen(3)-N(N(Me)2)-T-7MeW-K(NMeAc)-Pen(3)-APEG3F-2Nal-THP-K(NMeAc)-N-3Pya-Sar-CON(Me)2] (X11-[Pen]D(NMe2)T[Trp(7-Me)][Lys(Me)](Ac)[Pen]Y(CH2CH2OCH2CH2OCH2CH2NMe3+)[2Nal][Thp][Lys(Me)](Ac)N[3Pal][Sar]-NMe2; disulfide 1-6)	2.1	150
CCCCCCCCCCCC(=O)N[C@@H](CCC(=O)NCCOCCOCC(=O)NCCOCCOCC(=O)NCCOCCOCC(=O)NCCOCCOCC(=O)NCCCC[C@H](NC(=O)COCCOCCNC(=O)COCCOCCNC(=O)COCCOCCNC(=O)COCCOCCNC(=O)CC[C@H](NC(=O)CCCCCCCCCCC)C(=O)O)C(=O)NCCOCCOCC(=O)NCCOCCOCC(=O)NCCCC[C@@H](C(N)=O)N(C)C(=O)[C@H](Cc1cccnc1)NC(=O)[C@H](CC(N)=O)NC(=O)[C@H](CCCCN(C)C(C)=O)NC(=O)C1(NC(=O)[C@H](Cc2ccc3ccccc3c2)NC(=O)[C@H](Cc2ccc(OCCCCC[N+](C)(C)C)cc2)NC(=O)[C@H]2NC(=O)[C@H](CCCCNC(C)=O)NC(=O)[C@H](Cc3c[nH]c4c(C)cccc34)NC(=O)[C@H]([C@@H](C)O)NC(=O)[C@H](CC(=O)N(C)C)NC(=O)[C@@H](NC(=O)CCOCCOCC[N+](C)(C)C)C(C)(C)SSC2(C)C)CCOCC1)C(=O)O [compound 409, cPEG3aCO-Pen(3)-N(N(Me)2)-T-7MeW-K(Ac)-Pen(3)-TMAPF-2Nal-THP-K(NMeac)-N-3Pya-NMeK(PEG2PEG2K(PEG2PEG2PEG2PEG2gEC12)2)-CONH2]	47	198
CC(=O)N(C)CCCC[C@@H]1NC(=O)[C@H](Cc2c[nH]c3c(C)cccc23)NC(=O)[C@H]([C@@H](C)O)NC(=O)[C@H](CCNC(=N)N)NC(=O)[C@@H](NC(=O)CCOCCOCC[N+](C)(C)C)C(C)(C)SSC(C)(C)[C@@H](C(=O)N[C@@H](Cc2ccc(OCCOCCOCC[N+](C)(C)C)cc2)C(=O)N[C@@H](Cc2ccc3ccccc3c2)C(=O)NC2(C(=O)N[C@@H](CCCCN(C)C(C)=O)C(=O)N[C@@H](CC(N)=O)C(=O)N[C@@H](Cc3cccnc3)C(=O)N(C)CC(=O)N(C)C)CCOCC2)NC1=O [compound 411, cPEG3aCO-Pen(3)-Gab-T-7MeW-K(NMeAc)-Pen(3)-APEG3F-2Nal-THP-K(NMeAc)-N-3Pya-Sar-CON(Me)2] ({Me3N+(CH2)2O(CH2)2O(CH2)2CO}-[Pen][Agb]T[Trp(7-Me)][Lys(Me)](Ac)[Pen]Y(CH2CH2OCH2CH2OCH2CH2NMe3+)[2Nal][Thp][Lys(Me)](Ac)N[3Pal][Sar]-NMe2; disulfide 1-6 (inferred))	2.1	155
CC(=O)NCCCC[C@@H]1NC(=O)[C@H](Cc2c[nH]c3c(C)cccc23)NC(=O)[C@H]([C@@H](C)O)NC(=O)[C@H](CC(=O)N(C)C)NC(=O)[C@@H](NC(=O)CCOCCOCC[N+](C)(C)C)C(C)(C)SSC(C)(C)[C@@H](C(=O)N[C@@H](Cc2ccc(OCCCCC[N+](C)(C)C)cc2)C(=O)N[C@@H](Cc2ccc3ccccc3c2)C(=O)NC2(C(=O)N[C@@H](CN(C)C(C)=O)C(=O)N[C@@H](CC(N)=O)C(=O)N[C@@H](Cc3cccnc3)C(=O)N(C)CC(=O)N(C)C)CCOCC2)NC1=O [compound 415, cPEG3aCO-Pen(3)-N(N(Me)2)-T-7MeW-K(Ac)-Pen(3)-TMAPF-2Nal-THP-Dap(NMeAc)-N-3Pya-Sar-CON(Me)2] ({Me3N+(CH2)2O(CH2)2O(CH2)2CO}-[Pen]D(NMe2)T[Trp(7-Me)]K(Ac)[Pen]Y(X3)[2Nal][Thp][X15]N[3Pal][Sar]-NMe2; disulfide 1-6 (inferred))	4.4	148
CC(=O)N(C)CCCC[C@@H]1NC(=O)[C@H](Cc2c[nH]c3c(C)cccc23)NC(=O)[C@H]([C@@H](C)O)NC(=O)[C@H](CC[N+](C)(C)C)NC(=O)[C@@H](NC(=O)CCOCCOCC[N+](C)(C)C)C(C)(C)SSC(C)(C)[C@@H](C(=O)N[C@@H](Cc2ccc(OCCOCCOCC[N+](C)(C)C)cc2)C(=O)N[C@@H](Cc2ccc3ccccc3c2)C(=O)NC2(C(=O)N[C@@H](CCCCN(C)C(C)=O)C(=O)N[C@@H](CC(N)=O)C(=O)N[C@@H](Cc3cccnc3)C(=O)N(C)CC(=O)N(C)C)CCOCC2)NC1=O [compound 416, cPEG3aCO-Pen(3)-Dab(Me)3-T-7MeW-K(NMeAc)-Pen(3)-APEG3F-2Nal-THP-K(NMeAc)-N-3Pya-Sar-CON(Me)2] ({Me3N+(CH2)2O(CH2)2O(CH2)2CO}-[Pen][X20]T[Trp(7-Me)][Lys(Me)](Ac)[Pen]Y(CH2CH2OCH2CH2OCH2CH2NMe3+)[2Nal][Thp][Lys(Me)](Ac)N[3Pal][Sar]-NMe2; disulfide 1-6)	1.2	166
CC(=O)NCCCC[C@@H]1NC(=O)[C@H](Cc2c[nH]c3c(C)cccc23)NC(=O)[C@H]([C@@H](C)O)NC(=O)[C@H](CC(N)=O)NC(=O)[C@@H](NC(C)=O)C(C)(C)SSC(C)(C)[C@@H](C(=O)N[C@@H](Cc2ccc(N=[N+]=[N-])cc2)C(=O)N[C@@H](Cc2ccc3ccccc3c2)C(=O)NC2(C(=O)N[C@@H](CCCCNC(C)=O)C(=O)N[C@@H](CC(N)=O)C(=O)N[C@@H](Cc3cccnc3)C(=O)N(C)CC(N)=O)CCOCC2)NC1=O [compound 417] (Ac-[Pen]NT[Trp(7-Me)]K(Ac)[Pen][Phe(4-N3)][2Nal][Thp]K(Ac)N[3Pal][Sar]-NH2; disulfide 1-6 (inferred))	1.4	167
